This note sets out measurements from paper PMC12670317, “Targeted NAT10 Degradation by PROTAC NP1192 Suppresses Hypoxia-Adaptive Glycolysis and Reinvigorates CD8^+ Effector T‑Cell Function for Synergistic Cancer Immunotherapy” (ACS Central Science, 2025).

In one assay the test system is U14 cells. The assay is described as follows: Lactic acid, ATP and 2-NBDG uptake assays in U14 cells. The format is cell-based, murine. To be noted: U14, 20 μM, 36 h. As for the experimental part: SiHa and U14 cells (2 × 10^5 cells per well) were plated in 6-well plates and cultured in RPMI 1640 medium or DMEM supplemented with 10% FBS and 1% penicillin–streptomycin. After cell adherence, 20 μM NP1192 or DMSO was added and incubated for 36 h, and the assays were performed according to the instruction manuals for the Lactate Assay Kit (Nanjing Jiancheng, China), ATP Assay Kit (Beyotime, China), and 2-NBDG reagent (GlpBio, US). All data analyses were performed via GraphPad Prism 9, and the data are presented as the means ± SEMs.

A further assay deals with HIF-1α. The assay can be described thus: HIF-1α protein level in SiHa cells, Western blot. The format is cell-based, human. To be noted: 36 h. As for the experimental part: RIPA lysis buffer (Beyotime, China) mixed with 1% protease inhibitor (Sigma, US) was added to the cells, and a sample of total protein was obtained and then loaded onto an 8% or 12% polyacrylamide gel. The gel was placed in a buffer solution, and an electric current was applied. The separated proteins were subsequently transferred from the gel onto a PVDF membrane. Next, the membrane was blocked with 5% milk for 1 h to prevent nonspecific antibody binding. The membranes were subsequently incubated with anti-NAT10 (1:1000, Abcam, USA), anti-PD-L1 (1:1000, Proteintech, China), anti-HIF-1α (1:1000, Abmart, China), and anti-β-tubulin (1:1000, Proteintech, China) primary antibodies for 12 h. Afterward, the membrane was sequentially washed with 1× TBST and incubated for 1 h with an antimouse secondary antibody (1:6000, Elabscience, China) or antirabbit secondary antibody (1:6000, Elabscience, China). The target proteins were detected via chemiluminescence with a ChemiDoc MP Imaging System (Bio-Rad, US).

As for `N#Cc1ccc(-c2csc(N(CCCCCCC(=O)N3CCN(c4cccc5c4C(=O)N(C4CCC(=O)NC4=O)C5=O)CC3)N=C3CCCC3)n2)cc1` (stereo not shown) [NP1192], in the assay on U14 cells, the lactate levels entry is reported as “significantly decreased lactate levels” and the “level of ATP production” value is listed as “increased markedly”. Further, the “absorbtion rate (glucose analog 2-NBDG)” value in the assay with U14 cells (Figure 4L, DMSO 9.57) is given as 0.80. Besides, in the assay with HIF-1α, the HIF-1α protein levels result was “decreased HIF-1α protein levels”.
